Where two headings read alike, the source gives them in different places.
How the values were obtained:
[1] = FT-IR Damage Assessing Protocol after 5-Cycle Oxidative Hair Treatment Protocol With 2 Intermediate Washes; design: species or system human; conditions: for Damage after 5 cycles (cysteic acid units): 2 intermediate washes, pH 10
Method: For each chelant tested, seven switches of virgin dark hair were used. […] The switches usually weighed about 1.5 g each and are treated stepwise according to the following protocol.
A bleaching composition comprising the chelant to be tested is prepared by mixing in equal weight amounts a hydrogen peroxide emulsion base and an alkaline (high pH) emulsion base.
2 g Of the bleaching composition per g of hair to be treated was applied on the hair switches and massaged in thoroughly. The hair switches were then wrapped in a plastic film and put in an oven at 30° C. After 30 mn, they were removed from the oven and from the wrapping film and rinsed for 1 mn in water. 0.1 g of shampoo per g. of hair was then added and milked for 30 s at a rate of at least 150 strokes a minute before rinsing for 30 s. […] The concentration of copper (Cu^2+) ions was kept at about 1 ppm (+/−10%), the exact concentrations being measured by a standard analytic method. The rinsing water flow was adjusted to 6 liters per minute). The same shampooing and rinsing process was repeated another time (this is the “Oxidative Hair Treatment Protocol With 2 Intermediate Washes” referred to in the claims) or 9 additional times (this is the “Oxidative Hair Treatment Protocol With 10 Intermediate Washes” referred to in the claims) depending on the Damage Assessment Protocol used. The excess water was then squeezed out of the hair, and the hair dried with a fan. Any standard shampoo can be used in this protocol as long as it is free from transition metal ions such as copper ion and that the level chelants is less than 0.1% by weight of the shampoo. Prell® shampoo was using during these tests.
This Oxidative Hair Treatment Protocol can be repeated several times. […] This process is described as a 5-Cycle Oxidative Hair Treatment Protocol With 2 or 10 Intermediate Washes.
In particular, these authors have shown that the method is suitable for quantifying the amount of cysteic acid that is produced from the oxidation of cystine. In general, the oxidation of cystine is thought to be a suitable marker by which to monitor the overall oxidation of the keratinous part of the fiber.
They have shown that this technique is more suitable than using the FT-IR method in simple transmission or microscope modes. […] The detailed description of the method used for testing the different damage inhibitors follows thereafter:
A Perkin Elmer Spectrum® 1 Fourier Transform Infrared (FTIR) system equipped with a diamond Attenuated Total Internal Reflection (ATR) cell was used to measure the cysteic acid concentration in human hair. In this method, hair switches of various sizes and colours can be used. The switches were platted (˜1 plait per cm) in order to minimize variations in surface area of contact between readings. The Oxidative Hair Treatment Protocol described above was repeated for 5 cycles to mimic the behavior of hair after repeated bleaching cycles. Following this treatment, four readings per switch were taken (˜⅓ and ⅔ s down the switch on both sides), and an average calculated. Backgrounds were collected every 4 readings, and an ATR cell pressure of 1N/m was employed. The cell was cleaned with ethanol between each reading, and a contamination check performed using the monitor ratio mode of the instrument. […] The original spectra were initially converted to absorbance, before being normalized to the 1450 cm^−1 band (the characteristic and invariant protein CH2 stretch). This normalized absorbance was then twice derivatised using a 13 point averaging. The value of the 1450 cm^−1 normalized 2nd derivative of the absorbance at 1040 cm^−1 was taken as the relative concentration of cysteic acid. This figure was multiplied by −1×10^−4 to recast it into suitable units. […] The following instrumental conditions were employed:
The weight percentages for each chelant are indicated in the first line of the table below.

[2] = not given; remark: listed apart in the source
[3] = Hydrogen Peroxide Decomposition Ratio Measurement Protocol; conditions: for Peroxide % at t = 0 / Peroxide % at t = 30mn / Hydrogen Peroxide Decomposition Ratio (% Loss): pH 10, 300 ppm copper sulphate, 0.026M chelant; for Hydrogen Peroxide Decomposition Ratio (% Loss): after 30 minutes
Method: The Hydrogen Peroxide Decomposition Ratio Measurement Protocol is defined as follows: 6.0% by weight of concentrated ammonium hydroxide (30% active ammonia) is added to deionised water and the pH of the solution is adjusted to 10 using acetic acid. 300 ppm of copper sulphate and 0.026M of the chelant to be tested are added to said composition. […] The initial level of hydrogen peroxide is measured at this moment (t=0); the final level of hydrogen peroxide is measured after 30 minutes. The value of the ratio of the hydrogen peroxide concentration at t=0 and at t=30 mn is the Hydrogen Peroxide Decomposition Ratio (% Loss).
The initial and final level of hydrogen peroxide can be measured according to any standard technique. The following is a well-known and standard technique that was used by the inventors: 0.2-0.3 g (the exact quantity being precisely measured) of the solution to be titrated is added to 40 ml of 10% acetic acid. […] The level of hydrogen peroxide (% Peroxide) is then calculated from the following equation: [formula]
Three replicate runs are made at both t=0 and t=30 mn and then averaged to calculate the Hydrogen Peroxide Decomposition Ratio (% Loss).

[4] = Goniophotometer Damage Assessing Protocol after Oxidative Hair Treatment Protocol With 10 Intermediate Washes; design: species or system human
Method: A bleaching composition comprising the chelant to be tested is prepared by mixing in equal weight amounts a hydrogen peroxide emulsion base and an alkaline (high pH) emulsion base. 2 g Of the bleaching composition per g of hair to be treated was applied on the hair switches and massaged in thoroughly. The hair switches were then wrapped in a plastic film and put in an oven at 30° C. […] The rinsing water flow was adjusted to 6 liters per minute). […] The excess water was then squeezed out of the hair, and the hair dried with a fan. […] Prell® shampoo was using during these tests. This Oxidative Hair Treatment Protocol can be repeated several times.

[5] = tetra-protonated chelants; cited from earlier work
[6] = 25deg, 0.1M ionic strength; fully deprotonated chelants; cited from earlier work
[7] = 25deg, 0.1M ionic strength; fully deprotonated chelants; cited from earlier work; remark: listed apart in the source
[8] = log Conditional Stability Constant at pH 10 with Ca
[9] = log Conditional Stability Constant at pH 10 with Cu; conditions: for Ratio Cu/Ca of log Conditional Stability Constants: log KCuL / log KCaL
[10] = 3.8% weight on-head, tetra-sodium salt, 5 cycles
[11] = 1.9% weight on-head, tri-sodium salt, 5 cycles
[12] = 2.0% weight on-head (tetra-sodium EDTA, di-sodium HEDP), 5 cycles

| log Conditional Stability Constant (pH 10) Ca [8] | log Conditional Stability Constant (pH 10) Cu [9] | Ratio Cu/Ca of log Conditional Stability Constants [9] | Structure (SMILES) | Peroxide % at t = 0 [3] | Peroxide % at t = 30mn [3] | log protonation constant H2L^2− [5] | log protonation constant H3L^− [5] | log protonation constant H4L [5] | log protonation constant HL^3− [5] | log K (stability constant, 1:1 complex) Ca [6] | log K (stability constant, 1:1 complex) Cu [7] | Hydrogen Peroxide Decomposition Ratio (% Loss) [3] | Damage after 5 cycles (cysteic acid units) [1, 12] | other results |
| --- | --- | --- | --- | --- | --- | --- | --- | --- | --- | --- | --- | --- | --- | --- |
| – | – | – | O=P(O)(O)CN(CCN(CP(=O)(O)O)CP(=O)(O)O)CCN(CP(=O)(O)O)CP(=O)(O)O [DTPMP, diethylene-triamine-penta-(methylenephosphonic acid)] | 3.078% | 2.964% | – | – | – | – | – | – | – | – | log Conditional Stability Constant (pH 10) Cu: 15.14; Damage benefit vs EDTA 2% [1, 10]: +14%; Damage after 5 cycles (cysteic acid units) [1, 10]: 142 cysteic acid units; log Conditional Stability Constant (pH 10) Ca [2]: 4.74 |
| 4.27 | 16.04 | 3.76 | O=C(O)CC(NCCNC(CC(=O)O)C(=O)O)C(=O)O (stereo not drawn) [EDDS, ethylenediamine-N,N′-disuccinic acid] | 3.150% | 3.104% | 6.84 | 3.86 | 2.95 | 10.01 | 4.58 | 18.35 | 1.5% | – | Normalized shine ratio (hair treated after 9 cycles/ virgin hair) ([4]; 0.95 weight %, tri-sodium salt): 1.03; Hair damage compared with any other chelant (in words) ([1]; 1.9% by weight, 5 cycles): much less damage; Damage benefit vs EDTA 2% [1, 11]: +33%; Damage after 5 cycles (cysteic acid units) [1, 11]: 110 cysteic acid units; Damage benefit (in words) ([1]; concentrations much lower than 1.9% by weight on head): excellent benefits |
| – | 16.37 | – | O=C(O)CN(CCN(CC(=O)O)CC(=O)O)CC(=O)O [EDTA, ethylenediaminetetraacetic acid] | 3.576% | 3.573% | – | – | – | – | 10.65 | 18.78 | – | 165 cysteic acid units | Damage prevention properties (in words) ([1]; real conditions of use, high copper and Ca^2+ concentrations): very poor damage prevention properties; Damage benefit (in words) ([1]; unless utilized at levels much higher than 0.1%): very little benefits; Capacity at inhibiting the red-ox chemistry of copper (in words) ([3]; lab condition, de-ionized water): very good capacity |
| 5.13 | 8.98 | 1.75 | CC(O)(P(=O)(O)O)P(=O)(O)O [HEDP, 1-hydroxyethane-1,1-diphosphonic acid] | 4.126% | 2.792% | 6.88 | 2.53 | 1.8 | 10.8 | 6.0 | 11.84 | 32.3% | 163 cysteic acid units | Normalized shine ratio (hair treated after 9 cycles/ virgin hair) ([4]; 1.0 weight % (tetra-sodium EDTA, di-sodium HEDP)): 0.730; Damage benefit vs EDTA 2% ([1]; 2.0% weight on-head, di-sodium salt, 5 cycles): +1% |
| – | – | – | O=C(O)CC(NCC(O)CNC(CC(=O)O)C(=O)O)C(=O)O (stereo not drawn) [HPPDS, 2-hydroxypropylenediamine-N,N′-disuccinic acid] | – | – | – | – | – | – | – | – | – | – | Normalized shine ratio (hair treated after 9 cycles/ virgin hair) ([4]; 0.97 weight %, tetra-sodium salt): 1.00 |
| – | – | – | CC(C(=O)O)N(CC(=O)O)CC(=O)O (stereo not drawn) [MGDA, methylglycinediacetic acid] | 3.498% | 3.104% | – | – | – | – | – | – | 11.3% | – | – |

— patent US20070107143A1, “Oxidative treatment of hair with reduced hair damage” (priority 2001, published 2007)
